From US5281603A, “Angiotensin II receptor blocking 2,3,6 substituted quinazolinones” (American Cyanamid Company, priority 1993, dated 1994)
Values joined by “and” are separate entries in the source; they are usually repeats but may differ in a detail not shown here. Identical values can stand only once.

Test system: Angiotensin II vasopressor response
Assay: AII challenge: antagonism of angiotensin II vasopressor response in conscious spontaneously hypertensive rats
Assay type: in vivo, rat (Male Okamoto-Aoki SHR)
Conditions: 10 mg/kg I.V.; for % Inhibition / Average Change: SHR n=2; for Response After AII / Change / Control Before AII: individual SHR
Text: By administering a compound of this invention to a rat, and then challenging with angiotensin II, a blockage of the vasopressor response is realized.
Conscious Male Okamoto-Aoki SHR, 16-20 weeks old, weighing approximately 330 g are purchased from Charles River Labs (Wilmington, Mass.). Conscious rats are restrained in a supine position with elastic tape. The area at the base of the tail is locally anesthetized by subcutaneous infiltration with 2% procaine. The ventral caudal artery and vein are isolated, and a cannula made of polyethylene (PE) 10-20 tubing (fused together by heat) is passed into the lower abdominal aorta and vena cava, respectively. The cannula is secured, heparinized (1,000 I.U./ml), sealed and the wound is closed. The animals are placed in plastic restraining cages in an upright position. The cannula is attached to a Statham P23Db pressure transducer, and pulsatile blood pressure is recorded to 10-15 minutes with a Gould Brush recorder. (Chan et al., (Drug Development Res., 18:75-94, 1989).
Angiotensin II (human sequence, Sigma Chem. Co., St. […] Then a test compound, vehicle or a known angiotensin II antagonist is administered i.v., i.p. or orally to each set of rats. The two doses of angiotensin II are given to each rat again at 30, 60, 90, 120, 180, 240 and 300 minutes post dosing the compound or vehicle. The vasopressor response of angiotensin II is measured for the increase in systolic blood pressure in mmHg. The percentage of antagonism or blockade of the vasopressor response of angiotensin II by a compound is calculated using the vasopressor response (increase in systolic blood pressure) of angiotensin II of each rat predosing the compound as 100%. A compound is considered active if at 30 mg/kg i.v. it antagonized at least 50% of the response.

[1] = AII 0.05 mcg/kg IV, 30 min post dose
[2] = AII 0.05 mcg/kg IV, 60 min post dose
[3] = AII 0.05 mcg/kg IV, 90 min post dose
[4] = AII 0.05 mcg/kg IV, 120 min post dose
[5] = AII 0.05 mcg/kg IV, 180 min post dose
[6] = AII 0.05 mcg/kg IV, 240 min post dose
[7] = AII 0.05 mcg/kg IV, 300 min post dose
[8] = AII 0.1 mcg/kg IV, 30 min post dose
[9] = AII 0.1 mcg/kg IV, 60 min post dose
[10] = AII 0.1 mcg/kg IV, 90 min post dose
[11] = AII 0.1 mcg/kg IV, 120 min post dose
[12] = AII 0.1 mcg/kg IV, 180 min post dose
[13] = AII 0.1 mcg/kg IV, 240 min post dose
[14] = AII 0.1 mcg/kg IV, 300 min post dose
[15] = AII 0.05 mcg/kg IV, 30 min post dose, 10 mg/kg
[16] = AII 0.05 mcg/kg IV, 60 min post dose, 10 mg/kg
[17] = AII 0.05 mcg/kg IV, 90 min post dose, 10 mg/kg
[18] = AII 0.05 mcg/kg IV, 120 min post dose, 10 mg/kg
[19] = AII 0.05 mcg/kg IV, 180 min post dose, 10 mg/kg
[20] = AII 0.05 mcg/kg IV, 240 min post dose, 10 mg/kg
[21] = AII 0.05 mcg/kg IV, 300 min post dose, 10 mg/kg
[22] = AII 0.1 mcg/kg IV, 30 min post dose, 10 mg/kg
[23] = AII 0.1 mcg/kg IV, 60 min post dose, 10 mg/kg
[24] = AII 0.1 mcg/kg IV, 90 min post dose, 10 mg/kg
[25] = AII 0.1 mcg/kg IV, 120 min post dose, 10 mg/kg
[26] = AII 0.1 mcg/kg IV, 180 min post dose, 10 mg/kg
[27] = AII 0.1 mcg/kg IV, 240 min post dose, 10 mg/kg
[28] = AII 0.1 mcg/kg IV, 300 min post dose, 10 mg/kg

CCCCc1nc2ccc(C3=NN[C@H]4C(=O)N(C)C(=O)[C@@H]34)cc2c(=O)n1Cc1ccc(-c2ccccc2-c2nnn[nH]2)cc1 (relative stereo) [Example 7]
% Inhibition [1]: 57% | Average Change [1]: 20 mmHg | % Inhibition [2]: 57% | Average Change [2]: 20 mmHg | % Inhibition [3]: 57% | Average Change [3]: 20 mmHg | % Inhibition [4]: 62% | Average Change [4]: 17.5 mmHg | % Inhibition [5]: 67% | Average Change [5]: 15 mmHg | % Inhibition [6]: 62% | Average Change [6]: 17.5 mmHg | % Inhibition [7]: 24% | Average Change [7]: 35 mmHg | % Inhibition [8]: 50% | Average Change [8]: 27.5 mmHg | % Inhibition [9]: 58% | Average Change [9]: 23 mmHg | % Inhibition [10]: 59% | Average Change [10]: 22.5 mmHg | % Inhibition [11]: 67% | Average Change [11]: 18 mmHg | % Inhibition [12]: 50% | Average Change [12]: 27.5 mmHg | % Inhibition [13]: 55% | Average Change [13]: 25 mmHg | % Inhibition [14]: 54% | Average Change [14]: 25.5 mmHg | Response After AII [1]: 240 mmHg | Change [15]: 15 mmHg and 25 mmHg | Control Before AII [15]: 150 mmHg and 215 mmHg | Response After AII [15]: 165 mmHg | Change [16]: 15 mmHg and 25 mmHg | Control Before AII [16]: 145 mmHg and 215 mmHg | Response After AII [16]: 160 mmHg and 240 mmHg | Response After AII [3]: 230 mmHg | Change [17]: 40 mmHg and 0 mmHg | Control Before AII [17]: 135 mmHg and 230 mmHg | Response After AII [17]: 175 mmHg | Response After AII [4]: 160 mmHg | Change [18]: 20 mmHg and 15 mmHg | Control Before AII [18]: 140 mmHg and 200 mmHg | Response After AII [18]: 215 mmHg | Change [19]: 25 mmHg and 5 mmHg | Control Before AII [19]: 140 mmHg and 205 mmHg | Response After AII [19]: 165 mmHg and 210 mmHg | Change [20]: 25 mmHg and 10 mmHg | Control Before AII [20]: 135 mmHg and 190 mmHg | Response After AII [20]: 160 mmHg and 200 mmHg | Change [7]: 35 mmHg | Control Before AII [21]: 140 mmHg and 190 mmHg | Response After AII [21]: 175 mmHg and 225 mmHg | Change [22]: 20 mmHg and 35 mmHg | Control Before AII [22]: 140 mmHg and 215 mmHg | Response After AII [22]: 160 mmHg and 250 mmHg | Change [23]: 15 mmHg and 31 mmHg | Control Before AII [23]: 145 mmHg and 224 mmHg | Response After AII [23]: 160 mmHg and 255 mmHg | Change [24]: 25 mmHg and 20 mmHg | Control Before AII [24]: 140 mmHg and 215 mmHg | Response After AII [24]: 165 mmHg and 235 mmHg | Response After AII [11]: 160 mmHg | Change [25]: 25 mmHg and 11 mmHg | Control Before AII [25]: 135 mmHg and 214 mmHg | Response After AII [25]: 225 mmHg | Change [26]: 35 mmHg and 20 mmHg | Control Before AII [26]: 140 mmHg and 195 mmHg | Response After AII [26]: 175 mmHg and 215 mmHg | Change [27]: 35 mmHg and 15 mmHg | Control Before AII [27]: 140 mmHg and 190 mmHg | Response After AII [27]: 175 mmHg and 205 mmHg | Change [28]: 40 mmHg and 11 mmHg | Control Before AII [28]: 140 mmHg and 205 mmHg | Response After AII [28]: 180 mmHg and 216 mmHg
